Measured values reported in US20220378732A1, “SmartCore Compositions and Methods” (NPI, LLC, priority 2020, published 2022).

Tests used:
[1] = system: mice with high-fat diet-induced diabetes; conditions: Exp Physiol 100.11 (2015); cited from earlier work
[2] = system: high-fat diet-induced dyslipidemia; conditions: Nutrients 2016, 8, 276; cited from earlier work
[3] = system: T2D mouse model; experiment: serum LPC-fatty acid levels after 4 weeks of administration in T2D mouse model; type: in vivo, mice; conditions: for serum concentration of LPC-arachidonic acid (AA) / serum concentration of LPC-eicosapentaenoic acid (EPA) / serum concentration of α-linolenic acid (aLA): FIG. 5; for change in serum LPC-18:2 / change in serum LPC-DHA: T2D mouse model, 4 weeks of administration; for change in serum LPC-18:2: FIG. 3; for change in serum LPC-DHA: FIG. 4
Description: To validate the inventors' hypotheses on the biological activity of the lignan and methyl donor various animal experiments were performed using mice as test subjects. Diabetes (type 1 and type 2) was used as model disease for LPC deficiency. Type 2 (T2D) diabetic mice were 6-week-old BKS.Cg-Dock7m+/+Leprdb/J (db/db), leptin receptor deficient. Hyperglycemia was confirmed (BG>250 mg/dl). Upon confirmation, all animals were subjected to 4-week treatment as indicated below. Treatment groups were as follows: Control, MSM treatment alone, sesame seed oil treatment alone, and MSM+sesame seed oil treatment. For harvest, serum was collected for lipid panel and analyzed using standard clinical protocol and equipment. Tissues (brain, eyes, heart, liver, kidneys) for fatty acid analysis was frozen at −80° C., and liver sections preserved in formalin for histology. MSM was administered as 1% MSM solution in water: 15-20 ml water was given per ˜25 g mouse per day (6-8 g/kg dose for ˜25 g mouse; 3-5 g/kg dose for ˜40 g mouse). Sesamin was provided as 1.58 mg/mL sesamin in sesame seed oil with 0.12-0.15 mg/g sesamin in mouse food (T1D: 4.4 g food per mouse per day; T2D: 7-8 g food per mouse per day; 20-22 mg/kg dose for mouse (both models)). After 4 weeks of administration of the tested compounds in the T2D mouse model, LPC-18:2 and LPC-DHA were determined from plasma and exemplary results are shown in FIG. 3 and FIG. 4, respectively.

SMILES	effect on exercise capacity and skeletal muscle mitochondrial function [1]	effect on high-fat diet-induced dyslipidemia and kidney injury [2]	serum concentration of LPC-arachidonic acid (AA) [3]	serum concentration of LPC-eicosapentaenoic acid (EPA) [3]	serum concentration of α-linolenic acid (aLA) [3]	change in serum LPC-18:2 [3]	change in serum LPC-DHA [3]
c1cc2c(cc1[C@H]1OC[C@H]3[C@@H]1CO[C@@H]3c1ccc3c(c1)OCO3)OCO2 [sesamin]	prevent decline in exercise capacity and impairment of skeletal muscle mitochondrial function	ameliorating high-fat diet-induced dyslipidemia and kidney injury	did not result in an increase	did not result in an increase	did not result in an increase	did not trigger a statistically relevant change	did not trigger a statistically relevant change
CS(C)(=O)=O [MSM, methylsulfonylmethane]	–	–	did not result in an increase	did not result in an increase	did not result in an increase	did not trigger a statistically relevant change	did not trigger a statistically relevant change
